According to patent publication US5232930A, “2-heteroaryl-substituted benzodioxoic having 5-lipoxygenase inhibitory activity” (Imperial Chemical Industries PLC, priority 1991, dated 1993):

Key:
5-LO [1] = biological target: T1, 5-LO (Rattus norvegicus, UniProt P12527); assay: test c) in vivo zymosan-induced LTB4 liberation in rat air pouch; conditions: oral, male rats, 3 hours
T1 construct: liberation of LTB4 induced by zymosan within an air pouch generated within the subcutaneous tissue of the back of male rats; from tissue; host or cells: live male rats, zymosan-inflamed subcutaneous air pouch (endogenous enzyme)
T1 sequence (P12527 1-673): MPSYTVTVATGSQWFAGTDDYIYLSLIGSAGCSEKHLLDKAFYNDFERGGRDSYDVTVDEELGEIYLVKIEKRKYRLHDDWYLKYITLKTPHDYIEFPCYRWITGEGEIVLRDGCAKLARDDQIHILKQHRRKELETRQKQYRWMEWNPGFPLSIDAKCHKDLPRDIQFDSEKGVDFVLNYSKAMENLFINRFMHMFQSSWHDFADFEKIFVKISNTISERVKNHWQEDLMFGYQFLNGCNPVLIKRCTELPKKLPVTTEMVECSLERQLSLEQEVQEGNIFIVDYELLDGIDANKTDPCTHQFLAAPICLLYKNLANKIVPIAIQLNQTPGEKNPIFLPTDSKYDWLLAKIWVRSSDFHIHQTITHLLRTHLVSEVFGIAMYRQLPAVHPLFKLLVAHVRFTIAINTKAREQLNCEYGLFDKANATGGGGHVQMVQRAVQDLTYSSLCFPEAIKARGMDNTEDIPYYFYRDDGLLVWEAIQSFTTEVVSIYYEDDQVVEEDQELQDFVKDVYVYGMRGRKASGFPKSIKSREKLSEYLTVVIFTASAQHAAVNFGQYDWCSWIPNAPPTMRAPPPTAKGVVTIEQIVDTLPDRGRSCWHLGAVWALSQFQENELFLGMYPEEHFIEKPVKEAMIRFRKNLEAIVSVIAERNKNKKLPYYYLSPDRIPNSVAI
Description: (§1) As stated previously, the benzodioxole derivatives of the formula I are inhibitors of the enzyme 5-LO.
c) An in vivo system involving measuring the effects of a test compound administered orally against the liberation of LTB4 induced by zymosan within an air pouch generated within the subcutaneous tissue of the back of male rats. The rats are anaesthetised and air pouches are formed by the injection of sterile air (20 ml). A further injection of air (10 ml) is similarly given after 3 days. At 6 days after the initial air injection the test compound is administered (usually orally as the suspension produced when a solution of the test compound in dimethylsulphoxide is added to hydroxypropylmethylcellulose), followed by the intrapouch injection of zymosan (1 ml of a 1% suspension in physiological saline). After 3 hours the rats are killed, the air pouches are lavaged with physiological saline, and the specific radioimmunoassay described above is used to assay LTB4 in the washings. This test provides an indication of inhibitory effects against 5-LO in an inflammatory milieu.

5-LO [2] = biological target: T2, 5-LO (Homo sapiens, UniProt P09917); assay: test a) in vitro heparinised human blood, calcium ionophore A23187 challenge, LTB4 radioimmunoassay; format: cell-based
T2 construct: incubating a test compound with heparinised human blood, prior to challenge with the calcium ionophore A23187; from tissue; host or cells: heparinised human blood (endogenous enzyme of the blood cells)
T2 sequence (P09917 1-674): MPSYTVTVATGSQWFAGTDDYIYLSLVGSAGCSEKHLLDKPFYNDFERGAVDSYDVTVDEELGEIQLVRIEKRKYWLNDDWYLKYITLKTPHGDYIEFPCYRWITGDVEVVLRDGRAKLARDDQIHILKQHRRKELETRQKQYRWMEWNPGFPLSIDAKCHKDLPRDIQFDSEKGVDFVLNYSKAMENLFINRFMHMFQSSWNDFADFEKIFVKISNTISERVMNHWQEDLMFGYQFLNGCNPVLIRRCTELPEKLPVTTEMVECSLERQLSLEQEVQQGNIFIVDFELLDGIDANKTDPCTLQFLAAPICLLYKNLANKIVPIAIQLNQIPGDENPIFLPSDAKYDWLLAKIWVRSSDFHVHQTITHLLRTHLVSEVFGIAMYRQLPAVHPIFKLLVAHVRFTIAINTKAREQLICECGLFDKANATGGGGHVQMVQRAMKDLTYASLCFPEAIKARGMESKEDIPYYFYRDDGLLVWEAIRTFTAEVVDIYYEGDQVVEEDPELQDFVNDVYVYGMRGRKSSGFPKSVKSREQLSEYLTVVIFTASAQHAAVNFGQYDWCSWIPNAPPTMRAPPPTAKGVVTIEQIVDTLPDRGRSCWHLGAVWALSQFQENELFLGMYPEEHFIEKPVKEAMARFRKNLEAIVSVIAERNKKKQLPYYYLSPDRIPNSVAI
Description: as §1
a) An in vitro assay system involving incubating a test compound with heparinised human blood, prior to challenge with the calcium ionophore A23187 and the indirectly measuring the inhibitory effects on 5-LO by assaying the amount of LTB4 using specific radioimmunoassays described by Carey and Forder (F. Carey and R.A. Forder, Prostaglandins Leukotrienes Med., 1986, 22, 57; Prostaglandins, 1984, 28, 666; Brit. J. Pharmacol. 1985, 84, 34P) which involve the use of a protein-LTB4 conjugate produced using the procedure of Young et alia (Prostaglandins, 1983, 26(4), 605-613). The effects of a test compound on the enzyme cyclooxygenase (which is involved in the alternative metabolic pathway for arachidonic acid and gives rise to prostaglandins, thromboxanes and related metabolites) may be measured at the same time using the specific radioimmunoassay for thromboxane B2 (T×B2) described by Carey and Forder (see above). This test provides an indication of the effects of a test compound against 5-LO and also cyclooxygenase in the presence of blood cells and proteins. It permits the selectivity of the inhibitory effect on 5-LO or cyclooxygenase to be assessed.

`COC1(c2ccc3c(c2)OC(c2ccc4c(ccc(=O)n4C)c2)O3)CCOCC1` (centres unmarked) [5-(4-methoxytetrahydropyran-4-yl)-2-(1-methyl-2-oxo-1,2-dihydroquinolin-6-yl)benzo-1,3-dioxole] showed an ED50 (5-LO [1]) of under 0.5 mg/kg and an IC50 (5-LO [2]) of 0.38 µM.
